Values after ≈ are worked out from the molar mass of the structure shown.
How the values were obtained:
[1] = target: T1, PBP3 from Pseudomonas aeruginosa (PAO1) (Pseudomonas aeruginosa, UniProt G3XD46); experiment: Bocillin-FL fluorescence polarization competition binding, P. aeruginosa PBP3; settings: for IC50: Binding affinity to P. aeruginosa PBP3, fluorescence polarization competition binding assay using Bocillin-FL, read-out: P. aeruginosa PBP3 Potency
T1 construct: made in house
Excerpt: (§1) To determine the ability of boronic acid-based test PBP inhibitors to bind Penicillin Binding Proteins (PBPs), Bocillin-FL (fluorescently-labeled penicillin V; ThermoFisher Scientific) was used in a fluorescence polarization (FP) competition binding assay to assess inhibitor binding to PBP3 from Escherichia coli (K-12), PBP3 from Pseudomonas aeruginosa (PAO1), PBP1a and PBP3 from Acinetobacter baumannii (ATCC 19606), and PBP2 from Neisseria gonorrhoeae (FA19). PBPs were cloned and purified as described previously (E. coli PBP3, King, D. T, et al., ACS Infectious Diseases 2015, 1, 175-184; P. aeruginosa PBP3, Han et. al., PNAS 2010, 107 (51), 22002-22007; A. baumannii PBPs, Penwell et. al., Antimicrob. Agents Chemother. 2015, 59 (3), 1680-1689; N. gonorrhoeae PBP2, Singh et. al., J. Biol. Chem. 2019, 294 (38), 14020-14032). To establish assay conditions for competition binding, enzyme titration/saturation binding experiments were initially performed. Bocillin-FL was prepared at 0.2 μM in a buffer comprised of 50 mM Hepes (pH 8.0), 300 mM NaCl and 10% (v/v) glycerol for reactions with E. coli, P. aeruginosa and N. gonorrhoeae PBPs, and 25 mM Tris (pH 8.0), 200 mM NaCl, 10% (v/v) glycerol and 0.005% (v/v) Tween 20 for reactions with A. baumannii PBPs. Saturation binding was performed by mixing 40 μl of PBP solutions ranging in concentrations from 0-24 μM with 40 μl of the 0.2 μM Bocillin-FL solution, in individual wells of a black 384-well microplate. FP was measured immediately upon mixing (Excitation, 490 nm; Emission, 520 nm; g-factor, 0.96), using a Cytation3 (BioTek) microplate reader and measured continuously for up to 120 minutes. The FP response stabilized after 15 minutes for P. aeruginosa and A. baumannii PBP3, 30 minutes for E. coli PBP3 and A. baumannii PBP1a, and less than 1 minute for N. gonorrhoeae PBP2. […] The competition binding assay (80 μl final volume) was validated using beta-lactams and PBPs at final concentrations of: 1.5 μM for E. coli PBP3; 0.75 μM for P. aeruginosa PBP3; 1 μM for A. baumannii PBP1a; 0.2 μM for A. baumannii PBP3; and 0.25 μM for N. gonorrhoeae PBP2. Bocillin-FL was at 0.1 μM (0.05 μM with A. baumannii PBP1a) and beta-lactam concentrations ranged from 0-1,000 μM. E. coli PBP3 was incubated with increasing concentrations of ampicillin in a black 384-well microplate (Corning) for 30 minutes. P. aeruginosa PBP3 was incubated for 15 minutes with aztreonam, whereas A. baumannii PBP1a and PBP3 were incubated for 15 minutes with meropenem, and then Bocillin-FL was added followed immediately by the FP measurement for up to 60 minutes. […] The beta-lactam potency was reported as the concentration of beta-lactam required to reduce the amount of PBP bound-Bocillin-FL by 50% (EC50). […] The EC50 of aztreonam was determined to be <0.5 μM for P. aeruginosa PBP3. […] Binding assays for boronic acid PBP inhibitors were performed in an identical fashion for the respective PBPs.

[2] = target: T2, PBP3 from Acinetobacter baumannii (ATCC 19606) (Acinetobacter baumannii, UniProt A0ABX6CK25); experiment: Bocillin-FL fluorescence polarization competition binding, A. baumannii PBP3; settings: fluorescence polarization competition binding assay using Bocillin-FL; read-out: A. baumannii PBP3 Potency
T2 sequence (A0ABX6CK25 64-610): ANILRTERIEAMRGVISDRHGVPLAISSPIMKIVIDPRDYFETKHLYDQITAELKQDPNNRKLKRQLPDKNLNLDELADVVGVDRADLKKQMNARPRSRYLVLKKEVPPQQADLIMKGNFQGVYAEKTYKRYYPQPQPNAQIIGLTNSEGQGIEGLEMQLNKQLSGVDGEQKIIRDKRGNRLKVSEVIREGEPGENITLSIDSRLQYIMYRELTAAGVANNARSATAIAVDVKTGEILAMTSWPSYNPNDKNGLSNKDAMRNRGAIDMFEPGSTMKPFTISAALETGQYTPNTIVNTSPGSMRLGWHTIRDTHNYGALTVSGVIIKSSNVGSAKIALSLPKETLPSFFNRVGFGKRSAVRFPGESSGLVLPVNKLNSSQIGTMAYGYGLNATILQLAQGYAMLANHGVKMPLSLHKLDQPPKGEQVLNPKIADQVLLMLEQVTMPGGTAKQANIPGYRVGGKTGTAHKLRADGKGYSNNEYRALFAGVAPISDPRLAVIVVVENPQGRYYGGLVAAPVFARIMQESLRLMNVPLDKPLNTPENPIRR
Excerpt: as §1

P. aeruginosa ATCC 27853 = experiment: microbe, parasite or virus in culture; type: cell-based; settings: Pseudomonas aeruginosa, ATCC27853, read-out: Minimum inhibitory concentration, P. aeruginosa ATCC 27853
A. baumannii ATCC 17978 = experiment: microbe, parasite or virus in culture; type: cell-based; settings: Acinetobacter baumannii, ATCC17978, read-out: MIC, A. baumannii ATCC 17978
A. baumannii ATCC 19606 = experiment: microbe, parasite or virus in culture; type: cell-based; settings: Acinetobacter baumannii, ATCC19606, read-out: MIC, A. baumannii ATCC 19606
P. aeruginosa ATCC 35151 = experiment: microbe, parasite or virus in culture; type: cell-based; settings: Pseudomonas aeruginosa, ATCC35151, read-out: Minimum inhibitory concentration, P. aeruginosa ATCC 35151
[3] = tested on: P. aeruginosa (ΔmexAB-oprM); experiment: Broth microdilution MIC in iron-depleted CAMHB (IDM); type: cell-based; settings: Pseudomonas aeruginosa; iron-depleted CAMHB (IDM); […]; read-out: Minimum inhibitory concentration, P. aeruginosa ΔmexAB-oprM
P. aeruginosa CDC-0054 = experiment: microbe, parasite or virus in culture; type: cell-based; settings: Pseudomonas aeruginosa, CDC0054, read-out: Minimum inhibitory concentration, P. aeruginosa CDC-0054
P. aeruginosa CDC-0090 = experiment: microbe, parasite or virus in culture; type: cell-based; settings: Pseudomonas aeruginosa, CDC0090, read-out: Minimum inhibitory concentration, P. aeruginosa CDC-0090
P. aeruginosa CDC-0095 = experiment: microbe, parasite or virus in culture; type: cell-based; settings: Pseudomonas aeruginosa, CDC0095, read-out: Minimum inhibitory concentration, P. aeruginosa CDC-0095
A. baumannii 1258916 = experiment: microbe, parasite or virus in culture; type: cell-based, Acinetobacter baumannii; settings: Acinetobacter baumannii, 1258916, read-out: MIC, A. baumannii 1258916
A. baumannii CDC-0033 = experiment: microbe, parasite or virus in culture; type: cell-based; settings: Acinetobacter baumannii, CDC0033, read-out: MIC, A. baumannii CDC-0033
A. baumannii CDC-0036 = experiment: microbe, parasite or virus in culture; type: cell-based; settings: Acinetobacter baumannii, CDC0036, read-out: MIC, A. baumannii CDC-0036
A. baumannii CDC-0045 = experiment: microbe, parasite or virus in culture; type: cell-based; settings: Acinetobacter baumannii, CDC0045, read-out: MIC, A. baumannii CDC-0045
[4] = tested on: B. thailandensis ATCC 700388; experiment: microbe, parasite or virus in culture; type: cell-based; settings: Burkholderia thailandensis, ATCC700388, read-out: Minimum inhibitory concentration (MIC), B. thailandensis ATCC 700388
[5] = tested on: B. humptydooensis ATCC BAA-2767; experiment: microbe, parasite or virus in culture; type: cell-based; settings: Burkholderia humptydooensis, ATCCBAA2767, read-out: Minimum inhibitory concentration (MIC), B. humptydooensis ATCC BAA-2767
P. aeruginosa CDC-0110 = experiment: microbe, parasite or virus in culture; type: cell-based; settings: Pseudomonas aeruginosa, CDC0110, read-out: Minimum inhibitory concentration, P. aeruginosa CDC-0110

T1 sequence (G3XD46 whole entry): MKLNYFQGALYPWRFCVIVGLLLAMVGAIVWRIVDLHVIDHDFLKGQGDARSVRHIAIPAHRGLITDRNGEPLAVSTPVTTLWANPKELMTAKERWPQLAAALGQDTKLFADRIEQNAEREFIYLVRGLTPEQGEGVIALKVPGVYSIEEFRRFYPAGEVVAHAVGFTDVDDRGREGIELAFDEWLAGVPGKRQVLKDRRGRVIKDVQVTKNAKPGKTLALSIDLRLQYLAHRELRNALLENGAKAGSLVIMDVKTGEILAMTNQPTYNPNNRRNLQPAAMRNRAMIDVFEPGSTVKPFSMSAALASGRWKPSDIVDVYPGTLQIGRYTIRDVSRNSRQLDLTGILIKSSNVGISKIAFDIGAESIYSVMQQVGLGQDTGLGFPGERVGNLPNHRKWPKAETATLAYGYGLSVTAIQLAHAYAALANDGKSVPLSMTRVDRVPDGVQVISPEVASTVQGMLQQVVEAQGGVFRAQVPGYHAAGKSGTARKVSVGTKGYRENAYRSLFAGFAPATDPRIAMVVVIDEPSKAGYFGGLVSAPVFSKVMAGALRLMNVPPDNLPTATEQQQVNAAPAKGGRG

| SMILES | IC50 [1] | IC50 [2] | MIC (P. aeruginosa ATCC 27853) | MIC (A. baumannii ATCC 17978) | MIC (A. baumannii ATCC 19606) | MIC (P. aeruginosa ATCC 35151) | MIC [3] | MIC (P. aeruginosa CDC-0054) | MIC (P. aeruginosa CDC-0090) | MIC (P. aeruginosa CDC-0095) | MIC (A. baumannii 1258916) | MIC (A. baumannii CDC-0033) | MIC (A. baumannii CDC-0036) | MIC (A. baumannii CDC-0045) | MIC [4] | MIC [5] | MIC (P. aeruginosa CDC-0110) | EC50 ([1]; beta-lactam validation of FP competition assay, 15 minutes preincubation) |
| --- | --- | --- | --- | --- | --- | --- | --- | --- | --- | --- | --- | --- | --- | --- | --- | --- | --- | --- |
| O=C(O)c1c(F)ccc2c1OB(O)[C@@H](NC(=O)[C@@H](NC(=O)N1CCN(Cc3ccc(O)c(O)c3Cl)C(=O)C1=O)c1cccc(P(=O)(O)O)c1)C2 (single isomer, unassigned) [Example 162] | 10 to 50 µM | < 10 µM | 2 to 4 µg/mL (≈ 2.72 to 5.44 µM) | < 1 µg/mL | < 1 µg/mL | < 1 µg/mL | 2 to 4 µg/mL (≈ 2.72 to 5.44 µM) | 2 to 4 µg/mL (≈ 2.72 to 5.44 µM) | 2 to 4 µg/mL (≈ 2.72 to 5.44 µM) | 8 to 16 µg/mL (≈ 10.9 to 21.8 µM) | 32 to 64 µg/mL (≈ 43.6 to 87.1 µM) | > 128 µg/mL | > 128 µg/mL | > 128 µg/mL | 8 to 16 µg/mL (≈ 10.9 to 21.8 µM) | < 1 µg/mL | 2 to 4 µg/mL (≈ 2.72 to 5.44 µM) |  |
| O=C(O)c1c(F)ccc2c1OB(O)[C@@H](NC(=O)[C@@H](NC(=O)N1CCN(Cc3ccc(O)c(O)c3Cl)C(=O)C1=O)c1ccc(P(=O)(O)O)c(F)c1F)C2 [Example 165, (R)-3-((S)-2-(4-(2-chloro-3,4-dihydroxybenzyl)-2,3-dioxopiperazine-1-carboxamido)-2-(2,3-difluoro-4-phosphonophenyl)acetamido)-7-fluoro-2-hydroxy-3,4-dihydro-2H-benzo[e][1,2]oxaborinine-8-carboxylic acid] | 10 to 50 µM | < 10 µM | 2 to 4 µg/mL (≈ 2.59 to 5.19 µM) | < 1 µg/mL | < 1 µg/mL | < 1 µg/mL | 2 to 4 µg/mL (≈ 2.59 to 5.19 µM) | < 1 µg/mL | 2 to 4 µg/mL (≈ 2.59 to 5.19 µM) | < 1 µg/mL | 2 to 4 µg/mL (≈ 2.59 to 5.19 µM) | 32 to 64 µg/mL (≈ 41.5 to 83 µM) | > 128 µg/mL | < 1 µg/mL | < 1 µg/mL | < 1 µg/mL | < 1 µg/mL |  |
| O=C(O)c1c(F)ccc2c1OB(O)[C@@H](NC(=O)C(NC(=O)N1CCN(C3CCN(C(=O)c4cncc(O)c4)CC3)C1=O)c1cc(F)c(O)c(O)c1Cl)C2 (stereo partly drawn) [Example 464, (3R)-3-(2-(2-chloro-5-fluoro-3,4-dihydroxyphenyl)-2-(3-(1-(5-hydroxynicotinoyl)piperidin-4-yl)-2-oxoimidazolidine-1-carboxamido)acetamido)-7-fluoro-2-hydroxy-3,4-dihydro-2H-benzo[e][1,2]oxaborinine-8-carboxylic acid] | < 10 µM | < 10 µM |  |  |  |  |  |  |  |  |  |  |  |  |  |  |  |  |
| O=C(O)c1c(F)ccc2c1OB(O)[C@@H](NC(=O)C(NC(=O)N1CCN(C3CCN(C(=O)c4cc[nH]c(=O)c4)CC3)C1=O)c1cc(F)c(O)c(O)c1Cl)C2 (stereo partly drawn) [Example 465, (3R)-3-(2-(2-chloro-5-fluoro-3,4-dihydroxyphenyl)-2-(2-oxo-3-(1-(2-oxo-1,2-dihydropyridine-4-carbonyl)piperidin-4-yl)imidazolidine-1-carboxamido)acetamido)-7-fluoro-2-hydroxy-3,4-dihydro-2H-benzo[e][1,2]oxaborinine-8-carboxylic acid] | < 10 µM | < 10 µM |  |  |  |  |  |  |  |  |  |  |  |  |  |  |  |  |
| O=C(O)c1c(F)ccc2c1OB(O)[C@@H](NC(=O)C(NC(=O)N1CCN(C3CCN(C(=O)c4ccc5[nH]nnc5c4)CC3)C1=O)c1cc(F)c(O)c(O)c1Cl)C2 (stereo partly drawn) [Example 469, (3R)-3-(2-(3-(1-(1H-benzo[d][1,2,3]triazole-5-carbonyl)piperidin-4-yl)-2-oxoimidazolidine-1-carboxamido)-2-(2-chloro-5-fluoro-3,4-dihydroxyphenyl)acetamido)-7-fluoro-2-hydroxy-3,4-dihydro-2H-benzo[e][1,2]oxaborinine-8-carboxylic acid] |  | < 10 µM |  |  |  |  |  |  |  |  |  |  |  |  |  |  |  |  |
| C[C@H]1[C@H](NC(=O)/C(=N\OC(C)(C)C(=O)O)c2csc(N)n2)C(=O)N1S(=O)(=O)O [aztreonam, reference compound] |  |  |  |  |  |  |  |  |  |  |  |  |  |  |  |  |  | < 0.5 µM |
